Measurements taken from patent US20060079453A1, “Hla binding peptides and their uses” (priority 2002, published 2006).
No end group written: not given here.

Columns and labels:
Assay in all cases: biochemical
Format in all cases: binding
HLA-DR DRB1*1101 (DR11) = HLA-DR DRB1*1101 (DR11) (Homo sapiens, UniProt P01903+P01911, A100R/A169T/A87E/I96F/K41T/L162R/M171V/P40S/Q125H/Q178H/Q39Y/Q99D/R42S/S66Y/T262R/V115G/W38E); settings: DRB1 *1101
HLA-DR DRB1*0401 (DR4) = HLA-DR DRB1*0401 (DR4) (Homo sapiens, UniProt P01903+P01911, A100K/A169T/F76Y/I96L/K127E/L162R/M171V/N62H/P40V/Q125Y/R42H/S133A/S149N/S66Y/V115G/V209L/W38E); settings: DRB1 *0401
HLA-DR DRB1*0701 (DR7) = HLA-DR DRB1*0701 (DR7) (Homo sapiens, UniProt P01903+P01911, A100R/A102G/A103Q/D57E/D86V/E43K/F76Y/K127E/L162R/M171V/P40G/Q125H/Q99D/R33Q/R42Y/R54Q/S133A/S66F/T210M/V115G/Y107V/Y59L/Y89S); settings: DRB1 *0701
HLA-DR DRB1*1302 (DR13) = HLA-DR DRB1*1302 (DR13) (Homo sapiens, UniProt P01903+P01911, A100E/A169T/K41T/L162R/M171V/P40S/Q125H/Q178H/Q39Y/Q99D/R42S/S66N/T262R/V115G/W38E/Y61H); settings: DRBI *1302
Sequence of HLA-DR DRB1*1302 (DR13) (P01903 26-254 limits assumed, other chains not shown): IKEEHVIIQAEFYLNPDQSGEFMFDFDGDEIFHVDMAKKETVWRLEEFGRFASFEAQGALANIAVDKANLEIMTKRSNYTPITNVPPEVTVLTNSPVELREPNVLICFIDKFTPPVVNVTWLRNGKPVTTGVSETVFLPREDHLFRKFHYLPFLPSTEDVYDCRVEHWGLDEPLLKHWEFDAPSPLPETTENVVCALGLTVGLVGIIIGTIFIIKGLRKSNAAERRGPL

HLA-DR DRB1*1501 (DR15) = HLA-DR DRB1*1501 (DR15) (Homo sapiens, UniProt P01903+P01911); settings: DRBI *1501
HLA-DR DRB1*0101 (DR1) = HLA-DR DRB1*0101 (DR1) (Homo sapiens, UniProt P01903+P01911, A100R/D57E/F55L/F60I/F76Y/I96L/L162R/M171V/P40L/Q125E/R42F/V115G/Y59C); settings: DRB1 *0101
HLA-DR DRB5*0101 (DR51) = HLA-DR DRB5*0101 (DR51) (Homo sapiens, UniProt P01903+Q30154); settings: DRB5 *0101
HLA-DR DRB1*0301 (DR3) = HLA-DR DRB1*0301 (DR3) (Homo sapiens, UniProt P01903+P01911, A100K/A102G/A103R/A169T/F55Y/I96L/K41T/L162R/M171V/P40S/Q125H/Q178H/Q39Y/R42S/S66N/T106N/T262R/W38E/Y61H)
Sequence of HLA-DR DRB1*0301 (DR3) (P01903 26-254 limits assumed, other chains not shown): as above

HLA-DR DRB1*0901 (DR9) = HLA-DR DRB1*0901 (DR9) (Homo sapiens, UniProt P01903+P01911, A100R/A103E/D57H/D86V/F55Y/F60I/F76Y/I96F/K127E/L162R/M171V/P40D/Q125H/Q99R/R33Q/R42F/S133A/S66N/T210M/V115G/W38K/Y107V/Y59G/Y89S); settings: DRB1 *0901
HLA-DR DRB3*0101 (DR52) = HLA-DR DRB3*0101 (DR52) (Homo sapiens, UniProt P01903+P79483)
HLA-DR DRB1*0802 (DR8) = HLA-DR DRB1*0802 (DR8) (Homo sapiens, UniProt P01903+P01911, A100R/A103L/A169T/F76Y/H45Y/I96F/K41T/L162R/M171V/P40S/Q125H/Q178H/Q39Y/Q99D/R218S/R42G/S66Y/V115G/W38E)
HLA-DR DRB4*0101 (DR53) = HLA-DR DRB4*0101 (DR53) (Homo sapiens, UniProt P01903+P13762, G164S); settings: DRB4 *0101

Sequence of HLA-DR DRB1*1101 (DR11) (P01903 26-254 limits assumed, other chains not shown): as above

| Compound | IC50 (HLA-DR DRB1*1101 (DR11)) [µM] | IC50 (HLA-DR DRB1*0401 (DR4)) [nM] | IC50 (HLA-DR DRB1*0701 (DR7)) [µM] | IC50 (HLA-DR DRB1*1302 (DR13)) [nM] | IC50 (HLA-DR DRB1*1501 (DR15)) [nM] | IC50 (HLA-DR DRB1*0101 (DR1)) [nM] | IC50 (HLA-DR DRB5*0101 (DR51)) [µM] | IC50 (HLA-DR DRB1*0301 (DR3)) [nM] | IC50 (HLA-DR DRB1*0901 (DR9)) [µM] | IC50 (HLA-DR DRB3*0101 (DR52)) [nM] | IC50 (HLA-DR DRB1*0802 (DR8)) [µM] | IC50 (HLA-DR DRB4*0101 (DR53)) [nM] |
| --- | --- | --- | --- | --- | --- | --- | --- | --- | --- | --- | --- | --- |
| CC[C@H](C)[C@H](NC(=O)[C@@H]1CCCN1)C(=O)N[C@@H](CC(C)C)C(=O)N[C@@H](CC(C)C)C(=O)N[C@@H](Cc1c[nH]c2ccccc12)C(=O)N[C@@H](CCC(N)=O)C(=O)N1CCC[C@H]1C(=O)N[C@H](C(=O)N1CCC[C@H]1C(=O)N[C@H](C(=O)N[C@@H](Cc1c[nH]cn1)C(=O)N[C@H](C(=O)N[C@H](C(=O)N1CCC[C@H]1C(=O)N[C@@H](CC(C)C)C(=O)O)C(C)C)[C@@H](C)O)C(C)C)[C@@H](C)CC | 4.04 | 258 | 0.046 | 567 | 6.9 | 44 | 41.5 | > 81800 | 0.168 | > 8830 | 21.2 | – |
| CC(C)C[C@H](NC(=O)[C@H](CCC(N)=O)NC(=O)[C@H](CC(=O)O)NC(=O)[C@H](CCC(=O)O)NC(=O)[C@H](CO)NC(=O)[C@H](CC(C)C)NC(=O)[C@@H]1CCCN1C(=O)[C@@H](NC(=O)[C@@H](N)[C@@H](C)O)C(C)C)C(=O)N[C@@H](CC(C)C)C(=O)N[C@@H](Cc1ccc(O)cc1)C(=O)N[C@@H](CC(C)C)C(=O)N1CCC[C@H]1C(=O)N[C@@H](Cc1ccccc1)C(=O)N[C@@H](CCCNC(=N)N)C(=O)O | 26.5 | – | 11.3 | 5300 | > 2370 | 4010 | – | 332 | 37.4 | 4320 | 42.2 | 872 |
| CSCC[C@H](NC(=O)CNC(=O)CNC(=O)[C@H](CCCNC(=N)N)NC(=O)[C@@H](NC(=O)[C@H](CCC(N)=O)NC(=O)[C@H](C)NC(=O)[C@@H](NC(=O)[C@@H](NC(=O)[C@H](CC(C)C)NC(=O)[C@H](Cc1c[nH]cn1)NC(=O)[C@H](Cc1ccc(O)cc1)NC(=O)[C@@H](N)CCCCN)[C@@H](C)O)C(C)C)C(C)C)C(=O)N[C@H](C(=O)N[C@@H](Cc1ccccc1)C(=O)O)C(C)C | 0.859 | 806 | 0.228 | 193 | 1220 | 137 | 0.086 | 33700 | 5.86 | > 21900 | 1.52 | – |
| CSCC[C@H](NC(=O)[C@H](CC(C)C)NC(=O)[C@@H]1CCCN1C(=O)[C@@H](NC(=O)[C@H](CS)NC(=O)[C@H](CC(=O)O)NC(=O)[C@@H](NC(=O)[C@H](CCCNC(=N)N)NC(=O)[C@H](CC(C)C)NC(=O)[C@@H](NC(=O)[C@H](Cc1ccc(O)cc1)NC(=O)[C@@H](N)CC(N)=O)[C@@H](C)O)C(C)C)[C@@H](C)O)C(=O)N[C@@H](Cc1ccc(O)cc1)C(=O)N[C@@H](CO)C(=O)N[C@@H](CC(C)C)C(=O)O | 7.12 | 9.9 | 24.6 | 9 | 5060 | 6800 | 66.7 | 45 | 48.4 | 25 | 6.32 | – |
| TTLLRALGAQKEAIS | 0.86 | 339 | 4.28 | 1510 | 89 | 19 | 0.021 | 107000 | 4.61 | 33300 | 0.652 | – |
| CC(C)C[C@H](NC(=O)CNC(=O)[C@H](Cc1ccccc1)NC(=O)[C@H](CCC(=O)O)NC(=O)[C@H](CCCCN)NC(=O)[C@@H](N)Cc1c[nH]c2ccccc12)C(=O)N[C@@H](CC(=O)O)C(=O)N[C@@H](CO)C(=O)N[C@H](C(=O)N[C@@H](CCC(=O)O)C(=O)N[C@@H](CC(C)C)C(=O)N[C@@H](C)C(=O)N[C@@H](Cc1c[nH]cn1)C(=O)N[C@@H](Cc1ccc(O)cc1)C(=O)N[C@@H](CC(=O)O)C(=O)O)C(C)C | 4.93 | 96 | – | 8410 | 22800 | 1140 | 89.4 | 85 | 7.05 | 829 | 20 | 5920 |
| LTELYFEKGEYFVEM | > 18.9 | 8050 | – | 3160 | > 2370 | – | 6.66 | 592 | 26.9 | 124 | 18.8 | 601 |
| CC[C@H](C)[C@H](NC(=O)[C@@H]1CCCN1C(=O)[C@H](CC(N)=O)NC(=O)[C@@H](N)Cc1c[nH]c2ccccc12)C(=O)N[C@@H](CC(C)C)C(=O)N[C@@H](CC(C)C)C(=O)N[C@@H](Cc1c[nH]c2ccccc12)C(=O)N[C@@H](CCC(N)=O)C(=O)N1CCC[C@H]1C(=O)N[C@H](C(=O)N1CCC[C@H]1C(=O)N[C@H](C(=O)N[C@@H](Cc1c[nH]cn1)C(=O)N[C@H](C(=O)N[C@H](C(=O)O)C(C)C)[C@@H](C)O)C(C)C)[C@@H](C)CC | 19.6 | 695 | – | 2260 | 14 | 208 | ≥ 100 | > 81800 | 0.607 | > 8830 | 115 | 81 |
| CSCC[C@H](NC(=O)[C@H](CC(C)C)NC(=O)[C@H](CCC(N)=O)NC(=O)[C@H](CC(=O)O)NC(=O)[C@H](CC(N)=O)NC(=O)[C@H](CCSC)NC(=O)[C@H](CCSC)NC(=O)[C@H](CCCNC(=N)N)NC(=O)[C@H](CC(C)C)NC(=O)[C@@H](N)C(C)C)C(=O)N[C@@H](Cc1ccccc1)C(=O)N[C@@H](CC(C)C)C(=O)N[C@@H](CCC(=O)O)C(=O)N[C@@H](CCCNC(=N)N)C(=O)N[C@@H](C)C(=O)O | 2.35 | 29 | – | 130 | 127 | – | 0.085 | 183 | 10.7 | 98 | 1.7 | 88 |
